Tests used:
Conditions in all cases: in vivo
[1] = molecular target: T1, ATP-binding cassette sub-family C member 2 (Rattus norvegicus, UniProt Q63120); test: TP_TRANSPORTER: inhibition of GR biliary excretion (70.8->23.5 % of dose, DBSP: 3 uM/min/kg iv infusion, GR: 10 mg/kg iv) in SD rat; type: functional, organism-based, Sprague-Dawley, Bile; parameters: dose 10 mg/kg, route intravenous
[2] = molecular target: T1, ATP-binding cassette sub-family C member 2; test: TP_TRANSPORTER: inhibition of GR biliary excretion (70.8->23.5 % of dose, DBSP: 3 uM/min/kg iv infusion, GR: 10 mg/kg iv) in EHBR rat; type: functional, organism-based, Bile; parameters: dose 10 mg/kg, route intravenous
[3] = molecular target: T1, ATP-binding cassette sub-family C member 2; test: TP_TRANSPORTER: biliary excretion in SD rat; type: functional, organism-based, Sprague-Dawley, Bile
[4] = molecular target: T1, ATP-binding cassette sub-family C member 2; test: TP_TRANSPORTER: biliary excretion in EHBR rat; type: functional, organism-based, Bile

T1 sequence (Q63120 whole entry, the tested form may be a part): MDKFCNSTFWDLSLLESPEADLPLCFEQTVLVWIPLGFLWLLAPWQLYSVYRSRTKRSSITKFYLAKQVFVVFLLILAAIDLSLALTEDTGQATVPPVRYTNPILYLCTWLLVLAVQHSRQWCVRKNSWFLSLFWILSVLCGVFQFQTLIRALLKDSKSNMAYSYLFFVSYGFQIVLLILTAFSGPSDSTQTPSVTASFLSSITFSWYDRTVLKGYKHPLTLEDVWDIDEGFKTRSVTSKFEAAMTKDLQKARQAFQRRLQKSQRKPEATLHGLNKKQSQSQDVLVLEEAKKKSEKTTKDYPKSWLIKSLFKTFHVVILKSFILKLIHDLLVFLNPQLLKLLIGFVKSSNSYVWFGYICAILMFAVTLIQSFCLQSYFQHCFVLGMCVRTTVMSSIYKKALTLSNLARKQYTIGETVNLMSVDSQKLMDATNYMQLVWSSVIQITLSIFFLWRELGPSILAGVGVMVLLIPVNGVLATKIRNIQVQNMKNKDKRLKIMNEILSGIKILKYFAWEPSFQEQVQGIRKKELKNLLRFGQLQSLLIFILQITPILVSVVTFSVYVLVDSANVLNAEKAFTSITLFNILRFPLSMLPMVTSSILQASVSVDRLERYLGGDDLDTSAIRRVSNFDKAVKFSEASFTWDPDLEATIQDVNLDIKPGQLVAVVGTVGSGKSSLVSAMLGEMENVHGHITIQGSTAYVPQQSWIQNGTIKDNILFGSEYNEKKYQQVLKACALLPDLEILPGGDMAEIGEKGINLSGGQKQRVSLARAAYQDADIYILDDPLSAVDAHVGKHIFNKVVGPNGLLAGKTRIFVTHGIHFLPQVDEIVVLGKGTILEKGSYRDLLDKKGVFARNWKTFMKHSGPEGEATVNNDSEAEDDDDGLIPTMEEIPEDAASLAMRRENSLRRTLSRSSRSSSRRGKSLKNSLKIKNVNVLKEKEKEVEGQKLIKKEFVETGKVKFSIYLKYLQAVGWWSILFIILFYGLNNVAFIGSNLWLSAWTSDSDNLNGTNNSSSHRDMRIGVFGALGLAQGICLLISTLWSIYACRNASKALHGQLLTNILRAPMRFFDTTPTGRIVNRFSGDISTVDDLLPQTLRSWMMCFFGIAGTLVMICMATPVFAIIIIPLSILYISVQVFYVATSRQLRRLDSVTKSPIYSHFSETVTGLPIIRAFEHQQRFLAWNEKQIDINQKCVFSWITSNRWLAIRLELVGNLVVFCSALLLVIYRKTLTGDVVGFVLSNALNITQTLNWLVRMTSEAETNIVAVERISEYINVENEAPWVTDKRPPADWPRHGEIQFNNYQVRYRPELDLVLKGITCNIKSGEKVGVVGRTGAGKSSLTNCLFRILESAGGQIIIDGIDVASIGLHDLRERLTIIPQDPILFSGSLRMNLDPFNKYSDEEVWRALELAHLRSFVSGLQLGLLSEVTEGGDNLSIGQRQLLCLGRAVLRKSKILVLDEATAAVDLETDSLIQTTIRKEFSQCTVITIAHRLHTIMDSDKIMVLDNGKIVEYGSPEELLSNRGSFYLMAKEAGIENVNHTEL

| SMILES | Activity [1] | Activity [2] | Activity [3] | Activity [4] |
| --- | --- | --- | --- | --- |
| O=C1OC(c2ccc(OS(=O)(=O)O)cc2)(c2ccc(OS(=O)(=O)O)cc2)c2c(Br)ccc(Br)c21 [DIBROMOSULFOPHTHALEIN] | inhibitor [+] | inhibitor [+] |  |  |
| CC1(C)[C@@H](O[C@H]2O[C@H](C(=O)O)[C@@H](O)[C@H](O)[C@H]2O[C@@H]2O[C@H](C(=O)O)[C@@H](O)[C@H](O)[C@H]2O)CC[C@]2(C)[C@H]3C(=O)C=C4[C@@H]5C[C@@](C)(C(=O)O)CC[C@]5(C)CC[C@@]4(C)[C@]3(C)CC[C@@H]12 [GLYCYRRHIZIN] |  |  | substrate [+] | substrate [+] |

From ChEMBL document CHEMBL2073833, “Biliary excretion of glycyrrhizin in rats: kinetic basis for multiplicity in bile canalicular transport of organic anions” (Pharm Res, 1996)
